Laboratory results: patent US11458123B2 (Arvinas, Inc., priority 2016, dated 2022)

These molecules were tested on tau protein (assay: Tau protein in vitro degradation assay (Western blot, Tau-13 antibody)). Conditions: SK-N-SH cells; 72 hours of incubation; tested at 300 nM, 100 nM, 33 nM and 11 nM; Western blot, Tau-13 antibody.
Assay type: cell-based, human
How it was run: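 Tau degradation read by Tau-13 Western blot (detects all human tau forms) of SDS-PAGE-resolved lysates from SK-N-SH cells. Cells were plated at least 18 h before 72 h exposure to PROTACs at either 1000/300/100 nM or 300/100/33/11 nM.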

Q: `Cn1c2cc(-c3ccc(OCCOCCOCCOCCOCCOc4ccc5c(c4)C(=O)N(C4CCC(=O)NC4=O)C5=O)nc3)ccc2c2cncc(Cl)c21` (stereo not drawn) [Compound 195, 5-((14-((5-(4-chloro-5-methyl-5H-pyrido[4,3-b]indol-7-yl)pyridin-2-yl)oxy)-3,6,9,12-tetraoxatetradecyl)oxy)-2-(2,6-dioxopiperidin-3-yl)isoindoline-1,3-dione] was tested. Which “Degradation activity (tau protein remaining; highest amount of degradation observed at any dosage)” value did it give?
A: A (≤50% tau protein remaining after 72 hours of incubation with the test compound)

Q: `O=C1CCC(N2C(=O)c3ccc(OCC#Cc4ccc(O[C@H]5C[C@H](Oc6ccc(-c7cc8[nH]c9ccncc9c8c(F)c7F)cn6)C5)cn4)cc3C2=O)C(=O)N1` (stereo partly drawn) [Compound 204, 5-((3-(5-((1r,3r)-3-((5-(8,9-difluoro-5H-pyrido[4,3-b]indol-7-yl)pyridin-2-yl)oxy)cyclobutoxy)pyridin-2-yl)prop-2-yn-1-yl)oxy)-2-(2,6-dioxopiperidin-3-yl)isoindoline-1,3-dione] was tested. Which “Degradation activity (tau protein remaining; highest amount of degradation observed at any dosage)” value did it give?
A: C (>80% tau protein remaining after 72 hours of incubation with the test compound)

Q: Which “Degradation activity* (highest amount of degradation observed at any dosage; tau protein remaining)” value does the source give for `Cn1c2ccncc2c2ccc(-c3ccc(OCCOCCOCCOCCOCCOCCOc4ccc5c(c4)C(=O)N(C4CCC(=O)NC4=O)C5=O)nc3)cc21` (stereo not drawn) [Compound 131, 2-(2,6-dioxopiperidin-3-yl)-5-((17-((5-(5-methyl-5H-pyrido[4,3-b]indol-7-yl)pyridin-2-yl)oxy)-3,6,9,12,15-pentaoxaheptadecyl)oxy)isoindoline-1,3-dione] here?
A: A (≤50% tau protein remaining after 72 hours of incubation with the test compound)

Q: With `O=C1CCC(N2C(=O)c3ccc(OCCCCCN4CCN(CCO[C@H]5C[C@@H](Oc6ccc(-c7ccc8c(c7)[nH]c7ccncc78)cn6)C5)CC4)cc3C2=O)C(=O)N1` (stereo partly drawn) [Compound 56, 5-((5-(4-(2-((1 s,3 s)-3-((5-(5H-pyrido[4,3-b]indol-7-yl)pyridin-2-yl)oxy)cyclobutoxy)ethyl)piperazin-1-yl)pentyl)oxy)-2-(2,6-dioxopiperidin-3-yl)isoindoline-1,3-dione] as the molecule, how does the “Degradation activity* (highest amount of degradation observed at any dosage; tau protein remaining)” value read?
A: C (>80% tau protein remaining after 72 hours of incubation with the test compound)

Q: `Cn1c2ccncc2c2ccc(-c3ccc(O[C@H]4C[C@H](OCCCOCCCOC5CN(c6ccc7c(c6)C(=O)N(C6CCC(=O)NC6=O)C7=O)C5)C4)nc3)cc21` (stereo partly drawn) [Compound 104, 2-(2,6-dioxopiperidin-3-yl)-5-(3-(3-(3-((1r,3r)-3-((5-(5-methyl-5H-pyrido[4,3-b]indol-7-yl)pyridin-2-yl)oxy)cyclobutoxy)propoxy)propoxy)azetidin-1-yl)isoindoline-1,3-dione] was tested. Which “Degradation activity* (highest amount of degradation observed at any dosage; tau protein remaining)” value did it give?
A: A (≤50% tau protein remaining after 72 hours of incubation with the test compound)

Q: With `Cn1c2ccncc2c2ccc(-c3ccc(O[C@H]4C[C@H](OCCCCCCN5CCN(c6ccc7c(c6)C(=O)N(C6CCC(=O)NC6=O)C7=O)CC5C(F)(F)F)C4)nc3)cc21` (stereo partly drawn) [Compound 96, 2-(2,6-dioxopiperidin-3-yl)-5-(4-(6-((1r,3r)-3-((5-(5-methyl-5H-pyrido[4,3-b]indol-7-yl)pyridin-2-yl)oxy)cyclobutoxy)hexyl)-3-(trifluoromethyl)piperazin-1-yl)isoindoline-1,3-dione] as the molecule, how does the “Degradation activity* (highest amount of degradation observed at any dosage; tau protein remaining)” value read?
A: B (≤80% and >50% tau protein remaining after 72 hours of incubation with the test compound)

Q: `Cn1c2ccncc2c2ccc(-c3ccc(OC4CC5(C4)CN(CCOCCCOC4CN(c6ccc7c(c6)C(=O)N(C6CCC(=O)NC6=O)C7=O)C4)C5)nc3)cc21` (stereo not drawn) [Compound 211, 2-(2,6-dioxopiperidin-3-yl)-5-(3-(3-(2-(6-((5-(5-methyl-5H-pyrido[4,3-b]indol-7-yl)pyridin-2-yl)oxy)-2-azaspiro[3.3]heptan-2-yl)ethoxy)propoxy)azetidin-1-yl)isoindoline-1,3-dione] was tested. Which “Degradation activity (tau protein remaining; highest amount of degradation observed at any dosage)” value did it give?
A: C (>80% tau protein remaining after 72 hours of incubation with the test compound)

Q: How did the “Degradation activity* (highest amount of degradation observed at any dosage; tau protein remaining)” value turn out when `Cn1c2ccncc2c2ccc(-c3ccc(OCCCCCOCCOC(CC4CCN(c5ccc6c(c5)C(=O)N(C5CCC(=O)NC5=O)C6=O)CC4)C(F)(F)F)nc3)cc21` (stereo not drawn) [Compound 89, 2-(2,6-dioxopiperidin-3-yl)-5-(4-(3,3,3-trifluoro-2-(2-((5-((5-(5-methyl-5H-pyrido[4,3-b]indol-7-yl)pyridin-2-yl)oxy)pentyl)oxy)ethoxy)propyl)piperidin-1-yl)isoindoline-1,3-dione] was run?
A: C (>80% tau protein remaining after 72 hours of incubation with the test compound)

Q: With `Cn1c2ccncc2c2ccc(-c3ccc(CCCN4CCN(CCCCCOc5ccc6c(c5)CN(C5CCC(=O)NC5=O)C6=O)CC4)nc3)cc21` (stereo not drawn) [Compound 62, 3-(5-((5-(4-(3-(5-(5-methyl-5H-pyrido[4,3-b]indol-7-yl)pyridin-2-yl)propyl)piperazin-1-yl)pentyl)oxy)-1-oxoisoindolin-2-yl)piperidine-2,6-dione] as the molecule, how does the “Degradation activity* (highest amount of degradation observed at any dosage; tau protein remaining)” value read?
A: C (>80% tau protein remaining after 72 hours of incubation with the test compound)

Same assay, conditions: SK-N-SH cells; 72 hours of incubation; tested at 1000 nM, 300 nM and 100 nM

Q: For `Cc1ncsc1-c1ccc(CNC(=O)[C@@H]2C[C@@H](O)CN2C(=O)[C@@H](NC(=O)COCCOCCOCCOCC(O)COc2ccc3nc(-c4ccc(N(C)C)cc4)ccc3c2)C(C)(C)C)cc1` (stereo partly drawn) [Compound 46, (2S,4R)-1-((2S)-2-tert-butyl-18-(2-(4-(dimethylamino)phenyl)quinolin-6-yloxy)-17-hydroxy-4-oxo-6,9,12,15-tetraoxa-3-azaoctadecane)-4-hydroxy-N-(4-(4-methylthiazol-5-yl)benzyl)pyrrolidine-2-carboxamide], which “Activity* (highest amount of degradation observed at any dosage, as tau protein remaining)” value is on record?
A: C (>80% tau protein remaining after 72 hours of incubation with the test compound)

Q: `Cc1ncoc1-c1ccc([C@H](C)NC(=O)[C@@H]2C[C@@H](O)CN2C(=O)[C@@H](NC(=O)COCCOCCOCC(=O)N2CCN(c3ccn4c(n3)nc3ccccc34)CC2)C(C)(C)C)cc1` [Compound 21, (2S,4R)-1-((S)-14-(4-(benzo[4,5]imidazo[1,2-a]pyrimidin-2-yl)piperazin-1-yl)-2-(tert-butyl)-4,14-dioxo-6,9,12-trioxa-3-azatetadecanoyl)-4-hydroxy-N—((S)-1-(4-(4-methyloxazol-5-yl)phenyl)ethyl)pyrrolidine-2-carboxamide] was tested. Which “Activity* (highest amount of degradation observed at any dosage, as tau protein remaining)” value did it give?
A: C (>80% tau protein remaining after 72 hours of incubation with the test compound)

Q: `Cc1ncsc1-c1ccc(CNC(=O)[C@@H]2C[C@@H](O)CN2C(=O)[C@@H](NC(=O)COCCOCCOCCCOc2ccc3nc(-c4ccc(N(C)C)cc4)ccc3c2)C(C)(C)C)cc1` [Compound 8, (2S,4R)-1-((S)-2-(tert-butyl)-15-((2-(4-(dimethylamino)phenyl)quinolin-6-yl)oxy)-4-oxo-6,9,12-trioxa-3-azapentadecanoyl)-4-hydroxy-N-(4-(4-methylthiazol-5-yl)benzyl)pyrrolidine-2-carboxamide] was tested. Which “Activity* (highest amount of degradation observed at any dosage, as tau protein remaining)” value did it give?
A: C (>80% tau protein remaining after 72 hours of incubation with the test compound)
